The values that follow come from patent US4554274A, “Nb Quaternary derivatives of ajmaline and isoajmaline, methods and intermediate products in the manufacture of their derivatives and method of using same and pharmaceutical compositions thereof” (priority 1979, dated 1985).

Counter-ions that a name gives are not always drawn. Like-named read-outs stand apart in the source and are kept apart here.

A short description of series [1]: acute toxicity (LD50) in mice. The series is classed as in vivo. The following applies: mouse, in vivo, male NMRI-mice, mortality on 7th day. On the procedure:
(§1) The acute toxicity of the compounds is determined in male NMRI-mice (body weight range 18-22 g) after oral (p.o.) and intraperitonal (i.p.) administration. The LD50 is defined as that dose in μmol/kg which causes a 50% mortality rate of the test animals on the 7th day after application. The calculation of the LD50 is carried out by probitanalysis (see L. Cavalli-Sforza, Grundbegriffe der Biometric, Gustav Fischer Verlag Stuttgart (1964)).

For series [2], the system named is male NMRI-mice. Briefly: acute toxicity (LD50) in mice. It counts as in vivo. The following applies: i.p., mortality on 7th day. On the procedure: as §1
In series [3] the test system is male NMRI-mice. Briefly: minimum symptom dose (Campbell and Richter). To be noted: i.p., changes in behavior in 2 out of 3 mice. It counts as in vivo. On the procedure:
The minimum symptom dose is determined in male NMRI-mice (body weight range 18-22 g) according to the procedure of Campbell and Richter (see D. E. S. Campbell and W. Richter, Acta Pharmacol. Toxicol. 25 (1967), pp. 345-363). The minimum symptom dose is defined as that dose in μmol/kg which after i.p. administration causes changes in behavior in 2 out of 3 mice. The minimum symptom dose is a measure for evaluations undesirable side effects.

The subject of series [4] is isolated left atria. The series is described as follows: functional refractory period (FRP) and contraction force (CF) in isolated left atria, double stimulus method of Govier. The following applies: for EC (FRP prolonged to 125%) / IC25: Cavia porcellus, 0.3 h, isolated left atria of guinea pig, 18 minutes after application; for EC (FRP prolonged to 125%): read-out: concentration prolonging functional refractory period (FRP) to 125% of starting value; for IC25: read-out: concentration reducing contraction force (CF) to 75% of starting value. More on the design: species or system female guinea pigs. As for the experimental part:
The prolongation of the functional refractory period (FRP) and the contraction force (CF) in the isolated left atria of female guinea pigs (albinopirbright-white guinea pigs, body weight range 300-400 g) are determined according to the double stimulus method of Govier (see W. C. Govier, J. Pharmakol, Exp. Ther. 148 (1965) pp. 100-105). The concentrations which are given in the table below are the concentrations in […] which 18 minutes after application leads to a prolongation of the functional refractory period to 125% or respectively to a reduction of the contraction force to 75% of the starting value. Furthermore the ratio between contraction force-reducing dose and functional refractory period-prolonging dose is given. This ratio is an indication of the therapeutic range of the antiarrhythmic effect on the isolated organ (see K. Greef, Verh. Dtsch. Ges. Kreislaufforsch. 35 (1969) pp. 88-97).

Series [5] relates to male Wista rats (aconitine). The series is described as follows: aconitine infusion in rats, heart rhythm disruption (Raschak). It counts as in vivo. The following applies: 1/20th of the LD50, concurrent aconitine infusion, time difference vs control. As for the experimental part:
To determine the influence of the active ingredient on male Wista rats (weighing 280 to 350 g), infusion with aconitine according to the method of Raschak is carried out (M. Raschak, Arzneim. Forschung (Drug Research) 25 (4) (1975) pp. 639-641). The results are given as the difference (that is, the difference in time as Δ%) between the active substance and a control sample in bringing about a disruption of heart rhythms (extrasystolic (ES), ventricular tachicardiea (VT), chamber flutter (KF)). In the control sample the active ingredient is replaced by a vehicle such as isotonic NaCl-solution or solution medium. The administration of the active ingredient is in a dosage of 1/20th of the LD50 and a constant concurrent infusion per unit of time of aconitine.

With `CCC1C2CC3C4N(C)c5ccc(Br)cc5C45CC(C2C5O)[N+]3(CC(O)CN2CCCCC2)C1O` (centres unmarked) [Example 22, Nb-(2-hydroxy-3-(1-piperidinyl)propyl)-10-bromoisoajmalinium hydrogen tartrate], the 50% lethal dose (LD50) at 168 h in series [1] (po, p.o., read-out: LD50 p.o.) came out at 550 µmol/kg. In addition, the LD50 i.p. in series [2] turned out to be 168 µmol/kg. Also, the “Min. Symptom-dose” value in series [3] is 72 µmol/kg. Also, in series [4], the EC (FRP prolonged to 125%) was 8.1 µM and the IC25 turned out to be 3400 nM. Further, in series [5], the “Aconitin-Rat, ES (extrasystolic), Δ %” value is “+154%”; the “Aconitin-Rat, KF (chamber flutter), Δ %” value is listed as “+110%”; the “Aconitin-Rat, VT (ventricular tachycardia), Δ %” value was “+121%”.

On to `CCC1C2CC3C4N(C)c5ccc(Br)cc5C45CC(C2C5O)[N+]3(CCN2CCOCC2)C1O` (centres unmarked) [Example 10, Nb-[2-(4-morpholinyl)ethyl]-10-bromoisoajmalinium-chloride], for which the LD50 at 168 h in series [1] (ip, i.p., read-out: LD50 i.p.) was 45 µmol/kg. For the same compound, the LD50 at 168 h in series [1] (po, p.o., read-out: LD50 p.o.) was found to be 470 µmol/kg. Besides, in series [3], the “Min. Symptom-dose” value turned out to be 22 µmol/kg. Further, the “ratio between contraction force-reducing dose and functional refractory period-prolonging dose” value in series [4] (CF/FRP, indication of therapeutic range, 18 min) is recorded as 12.9. Besides, in series [4], the EC (FRP prolonged to 125%) was 0.2 µM and the IC25 is 2100 nM. In series [5], the “Aconitin-Rat, ES (extrasystolic), Δ %” value was “+67%”; the “Aconitin-Rat, KF (chamber flutter), Δ %” value is recorded as “+43%”; the “Aconitin-Rat, VT (ventricular tachycardia), Δ %” value is given as “+69%”.
